Data reported in US12427212B2, “Nectin-4 binding miniproteins, conjugates and uses thereof” (Aktis Oncology, Inc., priority 2023, dated 2025).
Bridges are numbered along the chain shown (N, C = ends). Primed or numbered codes have the meaning given here. [ ]: non-standard residue; d: D form. The star is where a group is joined. DOTA = O=C(O)CN1CCN(CC(=O)O)CCN(CC(=O)*)CCN(CC(=O)O)CC1; Biotin = O=C1N[C@H]2[C@H](CS[C@H]2CCCCC(=O)*)N1; Lys(Me3) = C[N+](C)(C)CCCC[C@H](N)C(=O)O; Arg(Me2s) = CN=C(NC)NCCC[C@H](N)C(=O)O; Cit = NC(=O)NCCC[C@H](N)C(=O)O; PEG4 = NCCOCCOCCOCCOCCC(=O)O; PEG4′ = not defined here

How the values were obtained:
[1] = test system: un-transfected HEK293 cells; assay: Background binding to un-transfected HEK293 cells (cell microarray suitability); assay type: cell-based, human; conditions: biotin-labeled molecules
Procedure: To evaluate potential off-target binding, six biotin-labeled molecules were tested in a cell microarray platform having 6,416 different human proteins spanning diverse functions and subcellular locations.

Nectin-4 [2] = target: T1, Nectin-4 (Homo sapiens, UniProt Q96NY8); assay: Surface plasmon resonance (Biacore), 1:1 binding model, human Nectin-4; conditions: SPR, 25° C.
T1 sequence (Q96NY8 32-510): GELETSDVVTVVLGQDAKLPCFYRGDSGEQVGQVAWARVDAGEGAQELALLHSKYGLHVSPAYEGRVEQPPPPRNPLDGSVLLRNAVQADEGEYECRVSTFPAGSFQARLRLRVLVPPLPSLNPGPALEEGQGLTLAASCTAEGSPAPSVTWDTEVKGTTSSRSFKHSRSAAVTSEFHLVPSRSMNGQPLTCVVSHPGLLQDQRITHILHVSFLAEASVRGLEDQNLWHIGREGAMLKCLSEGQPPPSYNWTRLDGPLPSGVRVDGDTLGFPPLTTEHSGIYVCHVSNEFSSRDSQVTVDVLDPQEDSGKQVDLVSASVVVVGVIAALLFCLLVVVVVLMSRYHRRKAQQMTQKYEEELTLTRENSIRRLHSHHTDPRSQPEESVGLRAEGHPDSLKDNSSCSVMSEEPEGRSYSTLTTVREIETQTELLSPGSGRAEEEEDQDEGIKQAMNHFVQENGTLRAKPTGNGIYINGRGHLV
Procedure: (§1) Peptide binding affinity to the target protein was measured by SPR using an SPR machine, such as a Biacore T200 instrument. The target protein was covalently coupled to a Biacore chip surface using free amine-coupling chemistry (NHS/EDC) and all uncoupled sites were blocked with ethanolamine. Free peptides were flowed over the target protein surface in increasing concentrations to measure association (Ka, 1/Ms^−1)) and dissociation (Kd, s^−1) to calculate the dissociation equilibrium constant (KD) using an appropriate binding model (see, e.g., Nikolas Stroth, J Biol Methods. 2016; 3 (1)).
(§2) In FIGS. 1A, 1B, 2A, and 2B, lines on graphs are labeled from top to bottom, beginning with letter “a.” and the corresponding concentration is noted to the right of the figure.
(§3) (i.e., a conjugate comprising a Nectin-4 peptide of SEQ ID NO: 5 and arranged having an N-terminus comprising ^138La-DOTA-PEG4 and a C-terminus comprising OH). […] In both FIGS. 3A and 3B, lines on graphs were labeled from top to bottom, beginning with letter a, and the corresponding concentration was noted to the right of the figure.

mouse Nectin-4 = target: T2, mouse Nectin-4 (Mus musculus, UniProt Q8R007); assay: Surface plasmon resonance (Biacore), 1:1 binding model, mouse Nectin-4; conditions: SPR, 25° C.
T2 sequence (Q8R007 31-508): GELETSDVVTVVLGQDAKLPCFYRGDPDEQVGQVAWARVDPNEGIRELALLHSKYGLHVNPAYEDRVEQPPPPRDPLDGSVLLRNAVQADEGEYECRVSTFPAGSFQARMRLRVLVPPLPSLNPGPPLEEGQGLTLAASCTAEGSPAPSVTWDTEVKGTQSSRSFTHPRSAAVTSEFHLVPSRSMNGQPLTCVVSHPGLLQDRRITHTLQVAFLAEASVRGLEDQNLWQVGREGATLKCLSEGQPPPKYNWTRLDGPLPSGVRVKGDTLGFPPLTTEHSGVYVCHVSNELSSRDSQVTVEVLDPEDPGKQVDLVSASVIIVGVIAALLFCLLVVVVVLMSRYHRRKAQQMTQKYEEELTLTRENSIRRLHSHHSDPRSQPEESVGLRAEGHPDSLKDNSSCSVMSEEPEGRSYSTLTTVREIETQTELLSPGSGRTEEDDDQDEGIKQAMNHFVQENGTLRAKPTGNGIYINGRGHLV
Procedure: as §1, §2, §3

[3] = test system: HT-1376 urothelial cancer cells; assay: In vitro cell cytotoxicity assay of 225Ac-radioconjugates (CellTiter-Glo); assay type: cell-based, human; conditions: compound radiolabeled with 225Ac, 24 h treatment, 4-5 day regrowth, HT-1376 cells
Procedure: Cytotoxicity to ^225Ac-radioconjugates was assessed in HT-1376 urothelial cancer cells. Cells were seeded in 96-well plates at densities of 250 to 1000 cells per well two days prior to treatment. On the day of treatment ^225Ac-radioconjugates were diluted in culture medium to concentrations ranging from 0,0001 to 100 μCi/mL and treatment solutions were incubated with cells for 24 h. At the end of the treatment period, the treatment solution was removed, and fresh culture medium was replenished for the regrowth period of the assay that lasted 4-5 day's. At the end of the regrowth period the culture medium was removed and viability was assessed by CellTiter-Glo (Promega, Waltham MA) luminescent assay and the plates were read on a Perkin Elmer Enspire multimode plate reader. Data were normalized to treatment controls and plotted as non-linear sigmoidal dose response curves to determine the effective concentration for 50% reduction in cell viability.

Nectin-4 [4] = target: T1, Nectin-4; assay: DELFIA competitive binding assay (Ki) against Eu-labeled C307 on HT-1376 cells
Procedure: A competition binding assay was utilized to determine the Ki for miniproteins bound to Nectin-4 expressed on the surface of cancer cells. […] Miniprotein incubations occurred for 90 min to reach binding equilibrium. […] After miniprotein incubations, the wells were washed to remove unbound ligand and treated according to manufacturer instructions for a DELFIA® (dissociation-enhanced lanthanide fluorescent immunoassay, Revvity Health Sciences). In brief, washed wells were incubated with 15 μL of 2 M HCl for 2 h at 37° C., after which 17 μL of 2 M NaOH and 30 μL of DELFIA® enhancement solution were added to each well and incubated for an additional 30 min. The remaining Eu reacted with the DELFIA® enhancer solution to generate fluorescence measured on the Envision instrument. Relative fluorescence units (RFUs) were measured as a function of test article concentration in order to calculate an IC50.
A whole cell binding assay was used to estimate the equilibrium binding affinity (KD) or binding inhibition constant (Ki) of miniprotein ligands to cells expressing a target of interest. Cells were dispensed into a 384-well plate and incubated at 37° C., in 5% CO2 overnight. The next day cells were gently washed once in assay buffer prior to addition of europium chelated ligand. […] For Ki determination, a single concentration (KD equivalent concentration) of europium-chelate miniprotein was added to each well followed immediately by the addition of unconjugated competing ligand over 12 different concentrations ranging from 100 times below and above expected Ki values as before. The plate was incubated for 1.5 h at room temperature to reach binding equilibrium. Cells were then washed three times at room temperature with 1×PBS followed by the addition of 2 M HCl and incubated for two h at 37° C. Following this step, 2 M NaOH and fluorescent inducer solution were added to each well and incubated for 30 minutes at room temperature according to the manufacturer's protocol (Perkin-ELMER DELFIA assay). Plates were read on an Envision plate reader and a curve-fitting model was applied to estimate KD and Ki values using GraphPad Prism software.
Engineered Nectin-4 miniproteins with further modified lysine residues (C298-C304; as described in Example 4B) were evaluated for their ability to bind to Nectin-4.

[5] = test system: Opossum kidney proximal tubule cells; assay: Proximal tubule epithelial cell uptake assay; assay type: cell-based; conditions: Table 10A; mean percent uptake in opossum kidney cells, 1 h at 37° C., relative to control miniprotein C306
Procedure: FIG. 8 is a bar graph of the percent uptake of exemplary miniproteins tested at 20 µM in a proximal tubule epithelial cell assay vs 20 μM control peptide set at 100%. […]
Opossum kidney proximal tubule cells were plated in the upper chamber of 24-well transwell plates containing 600 μL of growth media in the lower chamber and were incubated overnight at 37° C., in 5% CO2. The following day, the media was changed, and cells were incubated an additional 24 h with orbital shaking at 146 RPM. Next, cells were washed and treated in duplicates with biotinylated exemplary miniproteins pre-complexed with streptavidin-AF647 for 1 h at 37° C., and 5% C02 with continuous orbital shaking. Following incubation, cells were washed three times with 1×PBS and lysed with RIPA buffer containing protease and phosphatase inhibitor cocktail and a universal nuclease for 30 minutes. Uptake was measured on 100 μL of lysates using a fluorimeter. Mean % uptake values of control miniprotein C306 in the presence of exemplary miniproteins are provided in TABLE 10A and summarized in FIG. 8.
Uptake of engineered Nectin-4 miniproteins with further modified lysine residues (C298-C304, as described in Example 4B) was evaluated. Percent uptake of these exemplary Nectin-4-targeting miniproteins and C251 were determined against a control miniprotein, C306, using opossum kidney proximal tubule cells as described in Example 18A. Percent uptake of C298, which has an unmodified lysine (K) at amino acid position 26 (along the length of the miniprotein sequence. SEQ ID NO: 162), was 37% in the presence of […]. All other miniproteins having a modified lysine (modified with one or more small alkyl groups of monomethyl, dimethyl, trimethyl, or isopropyl group) had (i) kidney uptake similar to that of C251 and (ii) reduced uptake as compared to C298, which has an unmodified lysine at position 26.

[6] = In vivo biodistribution of 111In-labeled miniproteins by SPECT/CT, HT-1376 xenograft; set-up: species or system mouse; conditions: female, athymic nude, mouse, in vivo, 111In-labeled miniprotein, SPECT/CT, kidneys, n=3 mice
Procedure, shortened: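 Mice bearing HT-1376 (Nectin-4-expressing human) xenografts imaged by SPECT/CT after 111In-labeled miniprotein dosing. SPECT reported as activity; per-subject maximum intensity projections scaled in % ID/g at each time point.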

CC[C@H](C)[C@@H]1NC(=O)[C@H](Cc2ccc(O)cc2)NC(=O)[C@H](CCC(=O)O)NC(=O)[C@@H]2CSSC[C@@H](C(=O)N[C@@H](CO)C(=O)O)NC(=O)CNC(=O)[C@H](CC(C)C)NC(=O)[C@H](CC(N)=O)NC(=O)[C@H](CC(=O)O)NC(=O)[C@H](CC(C)C)NC(=O)[C@H]([C@@H](C)CC)NC(=O)[C@H](CCC(=O)O)NC(=O)[C@H](CCC(=O)O)NC(=O)[C@H]([C@@H](C)CC)NC(=O)[C@H](CSSC[C@H](NC(=O)CCOCCOCCOCCOCCNC(=O)CCCC[C@@H]3SC[C@@H]4NC(=O)N[C@@H]43)C(=O)N[C@@H](CC(=O)O)C(=O)N[C@@H](Cc3ccc(O)cc3)C(=O)N[C@@H](CC(=O)O)C(=O)N[C@@H](CCC(=O)O)C(=O)N[C@@H](CCC(N)=O)C(=O)N[C@@H](Cc3ccccc3)C(=O)N[C@@H](Cc3ccccc3)C(=O)N[C@@H]([C@@H](C)O)C(=O)N[C@@H](C)C(=O)N[C@@H](CC(C)C)C(=O)N[C@@H](C)C(=O)N[C@@H](CCCNC(=N)N)C(=O)N[C@@H](CC(C)C)C(=O)N[C@@H](CCCNC(=N)N)C(=O)NCC(=O)N[C@@H](C)C(=O)N[C@@H](CC(=O)O)C(=O)N[C@@H]([C@@H](C)CC)C(=O)N2)NC(=O)[C@H](CCC(=O)O)NC(=O)CNC(=O)[C@@H]2CCCN2C(=O)[C@H](CC(C)C)NC(=O)[C@H](Cc2ccc(O)cc2)NC(=O)[C@H](CCC(N)=O)NC(=O)[C@H](Cc2ccccc2)NC(=O)[C@H](CO)NC(=O)[C@H](C)NC(=O)[C@H](CCC(N)=O)NC1=O [Compound C247]
Background binding to un-transfected HEK293 cells [1]: low-background binding

Ac-CEYDEEFFAGLKRLRGGDICYYIKKKFDKVPDLCIEEILDKLGC-OH (disulfide 1-34, 20-44) [Compound C9]
Kd (Nectin-4 [2]): 7.5 nM
kd for human Nectin-4 (Nectin-4 [2]): 0.02271 s⁻¹
Kd (mouse Nectin-4): 7.82 nM
kd for mouse Nectin-4 (mouse Nectin-4): 0.02134 s⁻¹

C214 ({DOTA-PEG4′}-CEYDEEFFTALKRLRGGDICYYIKKKFDYLPKLCIEEILDNLGC-NH2; disulfide 1-34, 20-44) [Compound C214]
EC50 (microcurie/milliliter) for 225Ac radioconjugates [3]: 0.014 microcurie/milliliter

{Biotin-PEG4}-CDYDEQFFTALA[Cit]LRGGDICEYIQA[Lys(Me3)]FQYLPGLCIEEILDNLGCS-OH (disulfide 1-34, 20-44) [Compound C259]
Background binding to un-transfected HEK293 cells [1]: low-background binding

{Biotin-PEG4}-CDYDEQFFTALKRLRGGDICEYIQA[Lys(Me3)]FQYLPGECIEEILDNLGCS-OH (disulfide 1-34, 20-44) [Compound C255]
Ki (Nectin-4 [4]): 0.66 nM
% Uptake of C306 (Control) [5]: 14.1%

{Biotin-PEG4}-CEYDEEFFTALARLRGADICQYIQA[Lys(Me3)]FQYLPALCIEEILDNLGCS-OH (disulfide 1-34, 20-44) [Compound C252]
Ki (Nectin-4 [4]): 0.76 nM
% Uptake of C306 (Control) [5]: 1.24%

{Biotin-PEG4}-CEYDEQFFTALARLRGADICEYIQARFQYLPGLCIEEILDNLGCS-OH (disulfide 1-34, 20-44) [Compound C280]
Ki (Nectin-4 [4]): 0.54 nM
% Uptake of C306 (Control) [5]: 1.56%

{Biotin-PEG4}-CEYDEQFFTALARLRGGDICEYIQA[Arg(Me2s)]FQYLPGLCIEEILDNLGCS-OH (disulfide 1-34, 20-44) [Compound C267]
Ki (Nectin-4 [4]): 0.76 nM
% Uptake of C306 (Control) [5]: 0.800%

{DOTA-PEG4}-CEYDEEFFAGLKRLRGGDICYYIKKKFDKVPDLCIEEILDKLGC-OH (disulfide 1-34, 20-44) [Compound C12]
kd for human Nectin-4 (Nectin-4 [2]): 0.01697 s⁻¹
kd for mouse Nectin-4 (mouse Nectin-4): 0.02625 s⁻¹

{DOTA-PEG4}-CEYDEEFFAGLKRLRGGDICYYIKKKFDKVPDLCIEEILDKLGC-OH (disulfide 1-34, 20-44) [Compound C91]
kd for human Nectin-4 (Nectin-4 [2]): 0.02966 s⁻¹
kd for mouse Nectin-4 (mouse Nectin-4): 0.02817 s⁻¹

{DOTA-PEG4}-CEYDEQFFTALKALRGGDICYYIQASFNYLPDLCIEEILDNLGCS-OH (disulfide 1-34, 20-44 (inferred)) [Compound C113]
tissue uptake at 4 h ([6]; 4 h post-dosing, read-out: Biodistribution, Kidneys, 4 h (% ID/g) Average): 87.9 %ID/g
tissue uptake at 24 h ([6]; 24 h post-dosing, read-out: Biodistribution, Kidneys, 24 h (% ID/g) Average): 42.7 %ID/g
EC50 (microcurie/milliliter) for 225Ac radioconjugates [3]: 0.042 microcurie/milliliter
